Nine molecules from PubChem BioAssay (NCI) can be followed below.

“And” between values parts separate entries of the source, which are not always exact repeats. Equal values may be shown once.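 Step 1: Grow cells in 96-well plates. Step 2: Expose to compound for 48 hours at 5 concentrations. Step 3: Interpolate endpoints linearly; if unreached, use highest concentration. At the GI50, growth is halved. Definition used: TGI = concentration required for complete inhibition of growth.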

Test systems include ACHN renal; BT-549 breast; HCT-116 colon; M14 melanoma; OVCAR-5 ovarian; RPMI-8226 leukemia; SF-539 CNS; SK-MEL-28 melanoma; SW-620 colon; TK-10 renal.
Assay in all cases: growth of human tumour cells (NCI), 48 h

In the case of `O=C(CCN1CCCC1)Nc1ccc2c(NCCc3ccccc3)c3ccccc3nc2c1`, the GI50 in the assay with ACHN renal is 0.51 µM; in the assay on BT-549 breast, 1.19 µM; with HCT-116 colon it was 0.354 µM; in the assay with M14 melanoma it was 0.5 µM; in the assay with OVCAR-5 ovarian it was 0.506 µM; in the assay on RPMI-8226 leukemia it was 0.32 µM. Further, the GI50 with SF-539 CNS was 0.435 µM; in the assay with SK-MEL-28 melanoma it was 0.599 µM; in the assay with SW-620 colon, 0.3 µM; in the assay on TK-10 renal it was 1.06 µM. In addition, the TGI in the assay on ACHN renal amounted to 2.02 µM; in the assay with BT-549 breast it was 2.66 µM; with HCT-116 colon it was 1.38 µM; in the assay with M14 melanoma, 1.81 µM; in the assay with OVCAR-5 ovarian, 2.13 µM; with RPMI-8226 leukemia, 1.15 µM. The TGI came out at 1.55 µM with SF-539 CNS, 1.87 µM in the assay with SK-MEL-28 melanoma, 1.36 µM in the assay with SW-620 colon and 2.96 µM in the assay on TK-10 renal.

`COc1ccc(/C=N\NC(=O)c2ccc3nc(-c4ccc(Cl)cc4)[nH]c3c2)cc1`: the GI50 is 2 µM with ACHN renal; 3.36 µM with BT-549 breast; 2.14 µM in the assay on HCT-116 colon; 2.41 µM in the assay with M14 melanoma; 2.35 µM in the assay on OVCAR-5 ovarian; 0.997 µM in the assay with RPMI-8226 leukemia. Moreover, the GI50 in the assay with SF-539 CNS is 1.73 µM; with SK-MEL-28 melanoma it was 1.79 µM; in the assay with SW-620 colon, 2.41 µM; in the assay on TK-10 renal, 2.95 µM. Moreover, the TGI came out at 5.04 µM in the assay on ACHN renal; 16.4 µM in the assay on BT-549 breast; 5.12 µM with HCT-116 colon; 7.76 µM in the assay on M14 melanoma; 6.89 µM in the assay on OVCAR-5 ovarian; 4.77 µM in the assay on RPMI-8226 leukemia. Besides, the TGI in the assay with SF-539 CNS was 3.46 µM; with SK-MEL-28 melanoma, 3.37 µM; in the assay on SW-620 colon it was 5.58 µM; with TK-10 renal, 6.59 µM.

As for `O=c1c2c(=NCCN3CCCC3)cc3c(=O)n(CCCN4CCOCC4)c(=O)c4ccc(c(O)n1CCCN1CCOCC1)c2c4-3`, the GI50 in the assay with ACHN renal was 0.0909 µM; with BT-549 breast, 0.917 µM; in the assay with HCT-116 colon, below 0.0174 µM; in the assay with M14 melanoma, 0.323 µM; with OVCAR-5 ovarian, 0.113 µM; in the assay on RPMI-8226 leukemia it was 0.146 µM. The GI50 with SF-539 CNS was 0.345 µM; with SK-MEL-28 melanoma, 0.454 µM; in the assay with SW-620 colon, below 0.0192 µM; with TK-10 renal it was 0.195 µM. The TGI amounted to 1.51 µM in the assay on ACHN renal; 2.99 µM with BT-549 breast; 1.09 µM with HCT-116 colon; 1.19 µM in the assay with M14 melanoma; 1.21 µM with OVCAR-5 ovarian; 1.09 µM with RPMI-8226 leukemia. The TGI with SF-539 CNS was 1.43 µM; in the assay with SK-MEL-28 melanoma, 1.74 µM; in the assay with SW-620 colon, 1.07 µM; with TK-10 renal, 1.62 µM.

In the case of `CC(=O)Nc1ccc(-c2csc(Nc3cccc(-c4csc(-c5ccccc5)n4)c3)n2)cc1`, the GI50 in the assay on ACHN renal is 8.3 µM; with BT-549 breast, 22.5 µM; in the assay with HCT-116 colon, 18.4 µM; in the assay on M14 melanoma, 20.5 µM; in the assay on OVCAR-5 ovarian, above 50 µM; with RPMI-8226 leukemia it was 19.4 µM. The GI50 is 23.3 µM in the assay on SF-539 CNS, 6.75 µM with SK-MEL-28 melanoma, above 50 µM in the assay on SW-620 colon and 19.7 µM in the assay on TK-10 renal. The TGI with ACHN renal was 27.5 µM; in the assay on BT-549 breast it was above 50 µM; with HCT-116 colon, above 50 µM; in the assay on M14 melanoma it was above 50 µM; in the assay with OVCAR-5 ovarian, above 50 µM; in the assay with RPMI-8226 leukemia, above 50 µM. Further, the TGI in the assay on SF-539 CNS was above 50 µM; with SK-MEL-28 melanoma it was 36.4 µM; in the assay on SW-620 colon it was above 50 µM; in the assay on TK-10 renal it was above 50 µM.

For the molecule `COc1cc2cnc(-c3ccccc3)cc2cc1OC`, the TGI in the assay on ACHN renal is 73.4 µM; in the assay on BT-549 breast, 68.6 µM; with HCT-116 colon, above 100 µM; in the assay with M14 melanoma, above 100 µM; with OVCAR-5 ovarian it was above 100 µM; in the assay with RPMI-8226 leukemia it was 36 µM. Moreover, the TGI was above 100 µM in the assay with SF-539 CNS, above 100 µM with SK-MEL-28 melanoma, above 100 µM with SW-620 colon and 67.2 µM in the assay with TK-10 renal.

Regarding `Cc1ccc(-c2cc(-c3ccc(C)cc3)nc(N3CCN(CCNc4ccnc5cc(Cl)ccc45)CC3)n2)cc1`, the GI50 was 6.18 µM with ACHN renal; 6.06 µM with BT-549 breast; 1.66 µM with HCT-116 colon; 1.9 µM in the assay with M14 melanoma; 3.84 µM with OVCAR-5 ovarian; 3.48 µM with RPMI-8226 leukemia. The GI50 in the assay with SF-539 CNS is 1.68 µM; in the assay with SK-MEL-28 melanoma it was 1.91 µM; in the assay with SW-620 colon, 1.82 µM; in the assay with TK-10 renal, 2.29 µM. Further, the TGI in the assay with ACHN renal was 14.5 µM; in the assay on BT-549 breast it was 17 µM; in the assay with HCT-116 colon, 6.91 µM; with M14 melanoma it was 8.45 µM; in the assay on OVCAR-5 ovarian, 17.6 µM; in the assay on RPMI-8226 leukemia, above 50 µM. Moreover, the TGI in the assay with SF-539 CNS was determined as 5.84 µM; with SK-MEL-28 melanoma, 9.82 µM; with SW-620 colon, 6.32 µM; in the assay with TK-10 renal it was 8.12 µM.

In the case of `CCCC(C)c1c(Cl)nc(Cl)nc1Cl` (centres undefined), the TGI in the assay with ACHN renal was 15.5 µM; in the assay on BT-549 breast, 5.16 µM; with HCT-116 colon it was 3.66 µM; in the assay on M14 melanoma, 3.92 µM; in the assay with OVCAR-5 ovarian, 39 µM; with RPMI-8226 leukemia, above 100 µM. Besides, the TGI in the assay on SF-539 CNS is 19 µM; in the assay on SK-MEL-28 melanoma it was 13.4 µM; in the assay on SW-620 colon it was above 100 µM; in the assay on TK-10 renal, 37.4 µM.

For the molecule `O=C1/C(=C/c2ccc(Cl)cc2)CCC1CN1CCOCC1` (centres undefined), the TGI in the assay on ACHN renal was 24.8 µM; in the assay on BT-549 breast, 26 µM; in the assay with HCT-116 colon, 17.8 µM; in the assay with M14 melanoma, 19.4 µM; in the assay with OVCAR-5 ovarian, 45.7 µM; in the assay on RPMI-8226 leukemia, above 28.3 µM. Also, the TGI in the assay with SF-539 CNS came out at 34.6 µM; in the assay with SK-MEL-28 melanoma it was 21.5 µM; in the assay with SW-620 colon it was 6.71 µM; with TK-10 renal it was 18.3 µM.

With `O=C1C(Br)=C(Br)C(=O)c2ccccc21`, the GI50 in the assay on ACHN renal is 15.2 µM and 5.76 µM; in the assay on SF-539 CNS, 19.4 µM and 2.82 µM; in the assay with SK-MEL-28 melanoma it was 18.4 µM and 4.98 µM; in the assay with SW-620 colon, 16 µM and 2.28 µM. The TGI was 28.4 µM and 14.2 µM in the assay on ACHN renal; 15.3 µM in the assay with BT-549 breast; 31.8 µM and 28.1 µM in the assay on HCT-116 colon; 28.4 µM and 22.6 µM with M14 melanoma; 41.7 µM and 22.9 µM with OVCAR-5 ovarian; 10.4 µM in the assay on RPMI-8226 leukemia. Moreover, the TGI is 36 µM and 10.6 µM in the assay on SF-539 CNS; 32.8 µM and 15.6 µM in the assay with SK-MEL-28 melanoma; 29.5 µM and 8.64 µM in the assay with SW-620 colon; 32.4 µM and 26.6 µM in the assay on TK-10 renal.
